From paper PMC3898925 (Journal of Molecular Biology, 2010)

Columns and labels:
WsaF [1] = molecular target: T1, WsaF (Geobacillus stearothermophilus, UniProt Q7BG50, K78A/K79A/K81A); assay: X-ray crystal structure of soaked complex, […] Å; type: binding; conditions: crystal soaked 5 min in 20 mM dTDP-β-L-Rha; WsaFSER2 (b48 prints K78A/E79A/K81A); authors regard rhamnose ring position as incorrect
T1 construct: recombinant WsaF from pET28a-WsaF in E. coli BL21(DE3) Star; residues M1 to L413 mentioned
T1 sequence (Q7BG50 entry or part of it K78A/K79A/K81A): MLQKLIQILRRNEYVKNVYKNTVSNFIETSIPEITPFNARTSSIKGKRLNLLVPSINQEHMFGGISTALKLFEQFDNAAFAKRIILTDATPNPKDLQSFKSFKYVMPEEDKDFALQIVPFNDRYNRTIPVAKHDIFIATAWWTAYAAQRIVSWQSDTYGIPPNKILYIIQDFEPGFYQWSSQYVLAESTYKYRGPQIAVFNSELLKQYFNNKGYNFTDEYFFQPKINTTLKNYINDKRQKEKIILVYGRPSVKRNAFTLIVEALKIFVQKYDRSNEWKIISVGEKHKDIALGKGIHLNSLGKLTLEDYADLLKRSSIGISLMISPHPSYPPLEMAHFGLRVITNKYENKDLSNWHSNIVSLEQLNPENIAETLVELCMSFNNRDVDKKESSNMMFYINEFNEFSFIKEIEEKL

WsaF [2] = molecular target: T1, WsaF; assay: X-ray crystal structure of soaked complex, […] Å; type: binding; conditions: crystal soaked 5 min in 25 mM dTDP; surface entropy reduction mutant WsaFSER2 (b48 prints K78A/E79A/K81A)
WsaF [3] = molecular target: T2, WsaF (Geobacillus stearothermophilus, UniProt Q7BG50, R254A); assay: isothermal titration calorimetry; type: binding; conditions: 20 mM NaP pH 8.5, 50 mM NaCl, 20 °C; one-site model
T2 construct: recombinant WsaF from pET28a-WsaF in E. coli BL21(DE3) Star; residues M1 to L413 mentioned
T2 sequence (Q7BG50 entry or part of it R254A): as the sequence (Q7BG50 entry or part of it K78A/K79A/K81A) above, with A78K, A79K, A81K, R254A counted along it

WsaF [4] = molecular target: T3, WsaF (Geobacillus stearothermophilus, UniProt Q7BG50); assay: isothermal titration calorimetry; type: binding; conditions: 20 mM NaP pH 8.5, 50 mM NaCl, 20 °C; one-site model
T3 construct: recombinant WsaF from pET28a-WsaF in E. coli BL21(DE3) Star; residues M1 to L413 mentioned
T3 sequence (Q7BG50 1-413): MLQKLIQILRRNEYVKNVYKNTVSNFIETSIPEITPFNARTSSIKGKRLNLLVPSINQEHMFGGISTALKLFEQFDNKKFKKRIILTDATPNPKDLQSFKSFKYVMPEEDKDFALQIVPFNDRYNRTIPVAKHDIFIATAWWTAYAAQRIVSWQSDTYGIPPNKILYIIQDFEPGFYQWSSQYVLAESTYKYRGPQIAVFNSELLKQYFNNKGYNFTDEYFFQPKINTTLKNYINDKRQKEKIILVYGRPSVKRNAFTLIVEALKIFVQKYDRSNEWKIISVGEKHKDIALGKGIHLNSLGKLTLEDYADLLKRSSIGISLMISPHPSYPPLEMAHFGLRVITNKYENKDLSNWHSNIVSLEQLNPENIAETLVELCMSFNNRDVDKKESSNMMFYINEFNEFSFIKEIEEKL

WsaF [5] = molecular target: T4, WsaF (Geobacillus stearothermophilus, UniProt Q7BG50, E333A); assay: isothermal titration calorimetry; type: binding; conditions: 20 mM NaP pH 8.5, 50 mM NaCl, 20 °C; one-site model
T4 construct: recombinant WsaF from pET28a-WsaF in E. coli BL21(DE3) Star; residues M1 to L413 mentioned
T4 sequence (Q7BG50 entry or part of it E333A): as the sequence (Q7BG50 entry or part of it K78A/K79A/K81A) above, with A78K, A79K, A81K, E333A counted along it

[6] = molecular target: the molecule itself; assay: crystal structure; SeMet-labelled WsaF, space group P2_(1), two molecules in the asymmetric unit, 2.28 Å

Cc1cn([C@H]2C[C@H](O)[C@@H](COP(=O)(O)OP(=O)(O)O[C@H]3O[C@@H](C)[C@H](O)[C@@H](O)[C@H]3O)O2)c(=O)[nH]c1=O [dTDP-β-L-rhamnose]
X-ray crystal structure of soaked complex, 2.55 Å (WsaF [1]): The structures of the dTDP-WsaFSER2 and dTDP-β-L-Rha-WsaFSER2 complexes were obtained by soaking

Cc1cn([C@H]2C[C@H](O)[C@@H](COP(=O)(O)OP(=O)(O)O)O2)c(=O)[nH]c1=O [dTDP]
X-ray crystal structure of soaked complex, 2.81 Å (WsaF [2]): The structures of the dTDP-WsaFSER2 and dTDP-β-L-Rha-WsaFSER2 complexes were obtained by soaking
isothermal titration calorimetry (WsaF [3]): (ITC) of E333A and R254A showed weaker dTDP binding than native WsaF
isothermal titration calorimetry (WsaF [4]): showed weaker dTDP binding than native WsaF, when qualitatively comparing the curves (Fig. S3)
isothermal titration calorimetry (WsaF [5]): The mutant E333A showed a reduced binding affinity for dTDP

B1: SeMet-labelled WsaF from Geobacillus stearothermophilus NRS 2004/3a (enzyme)
chain: MLQKLIQILRRNEYVKNVYKNTVSNFIETSIPEITPFNARTSSIKGKRLNLLVPSINQEHMFGGISTALKLFEQFDNKKFKKRIILTDATPNPKDLQSFKSFKYVMPEEDKDFALQIVPFNDRYNRTIPVAKHDIFIATAWWTAYAAQRIVSWQSDTYGIPPNKILYIIQDFEPGFYQWSSQYVLAESTYKYRGPQIAVFNSELLKQYFNNKGYNFTDEYFFQPKINTTLKNYINDKRQKEKIILVYGRPSVKRNAFTLIVEALKIFVQKYDRSNEWKIISVGEKHKDIALGKGIHLNSLGKLTLEDYADLLKRSSIGISLMISPHPSYPPLEMAHFGLRVITNKYENKDLSNWHSNIVSLEQLNPENIAETLVELCMSFNNRDVDKKESSNMMFYINEFNEFSFIKEIEEKL
modifications: selenomethionine (SeMet)-labelled
notes: WsaF, beta-1,2-rhamnosyltransferase of Geobacillus stearothermophilus NRS 2004/3a; the structure is described from M1 to L413 (M1-N25, Q58-G63 and N382-E389 with poor or no density); also called SeMet variant WsaF; SeMet-WsaF; source: E. coli BL21(DE3) Star, purified to homogeneity
stoichiometry N [6]: 2
